Assay [1] addresses human GLP-1 receptor (hGLP-1R) (Homo sapiens, UniProt P43220). The experiment in a line: cAMP production (HTRF) in CHO cells expressing hGLP-1R. The class given is cell-based. Further details: expressed in transfected cells. The following applies: for EC50: Table 7, peptides modified at position 20, cAMP in CHO hGLP-1R cells, geometric mean, read-out: hGLP-1R EC50; for % Relative Potency Ratio: Table 7, % GLP-1R activity relative to GLP-1 / % GlucR activity relative to glucagon. The method in brief:
(§1)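 Read-out: HTRF cAMP (anti-cAMP cryptate donor, cAMP-d2 acceptor in conjugate/lysis buffer), converted to % Delta F and fitted by 4-parameter logistic for EC50. Cell densities were 1×10^5 cells/mL (hGLP-1R) or 2×10^5 cells/mL (hGCGR). Stimulation lasted 30 min at room temperature.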
(Changes in cAMP serve as a functional read-out for many G protein-coupled receptors.)

In assay [2] the target is human glucagon receptor (hGCGR) (Homo sapiens, UniProt P47871). The experiment in a line: cAMP production (HTRF) in CHO cells expressing hGCGR. The assay is classed as cell-based. Further details: expressed in transfected cells. As to conditions: Table 7, peptides modified at position 20; cAMP in CHO hGCGR cells; geometric mean; read-out: hGluc-R EC50. The method in brief: as §1
human glucagon receptor (hGCGR), sequence (P47871 26-477): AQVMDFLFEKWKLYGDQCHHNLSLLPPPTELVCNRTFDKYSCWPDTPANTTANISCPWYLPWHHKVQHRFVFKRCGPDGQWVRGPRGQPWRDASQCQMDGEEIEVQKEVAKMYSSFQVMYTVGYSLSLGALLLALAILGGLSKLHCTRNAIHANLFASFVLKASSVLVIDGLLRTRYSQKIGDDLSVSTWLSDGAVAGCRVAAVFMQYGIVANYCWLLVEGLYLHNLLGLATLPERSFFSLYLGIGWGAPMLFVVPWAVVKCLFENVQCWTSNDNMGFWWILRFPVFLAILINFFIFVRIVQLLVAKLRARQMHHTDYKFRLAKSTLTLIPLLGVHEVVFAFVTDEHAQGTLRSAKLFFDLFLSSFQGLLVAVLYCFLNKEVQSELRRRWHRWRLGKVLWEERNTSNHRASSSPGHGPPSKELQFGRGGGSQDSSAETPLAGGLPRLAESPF

Data on six molecules can be found in patent publication US20250353891A1 (MEDIMMUNE LIMITED, priority 2022, published 2025).

One may read the EC50 as the concentration at which the effect is half-maximal.

Starred links: 1 amine or outer side, 2 acyl side, 3 side chain; linkers in the order of their positions; H or OH if unused. Non-standard residues stand in square brackets, D forms with d. Residues, ends and D or L forms follow the SMILES beside them. Groups on a side chain read outwards from the residue. *: point of attachment. C18 diacid = O=C(O)CCCCCCCCCCCCCCCCC(=O)*; γGlu = O=C(O)[C@H](CCC(=O)[*:2])N[*:1]; αMeF = C[C@](N)(Cc1ccccc1)C(=O)O; PEG4 = NCCOCCOCCOCCOCCC(=O)O; AEEA = NCCOCCOCC(=O)O; Aib = CC(C)(N)C(=O)O

human GLP-1 receptor (hGLP-1R), sequence (P43220 24-463): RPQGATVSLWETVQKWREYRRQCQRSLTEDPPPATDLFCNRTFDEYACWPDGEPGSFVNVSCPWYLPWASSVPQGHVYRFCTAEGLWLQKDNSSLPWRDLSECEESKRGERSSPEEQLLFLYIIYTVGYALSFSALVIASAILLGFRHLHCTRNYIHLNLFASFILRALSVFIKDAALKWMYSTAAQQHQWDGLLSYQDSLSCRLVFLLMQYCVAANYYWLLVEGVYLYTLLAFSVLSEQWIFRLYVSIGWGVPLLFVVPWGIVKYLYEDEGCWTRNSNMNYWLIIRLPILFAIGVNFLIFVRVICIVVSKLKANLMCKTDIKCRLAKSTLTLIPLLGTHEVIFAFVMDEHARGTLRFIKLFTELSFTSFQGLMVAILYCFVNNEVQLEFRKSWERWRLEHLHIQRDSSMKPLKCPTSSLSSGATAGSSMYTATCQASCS

On to `CC[C@H](C)[C@H](NC(=O)[C@H](Cc1c[nH]c2ccccc12)NC(=O)[C@H](CCC(N)=O)NC(=O)[C@@H](NC(=O)[C@H](Cc1ccccc1)NC(=O)[C@H](CC(=O)O)NC(=O)[C@H](CCCCNC(=O)COCCOCCNC(=O)COCCOCCNC(=O)CC[C@H](NC(=O)CCCCCCCCCCCCCCCCC(=O)O)C(=O)O)NC(=O)[C@H](C)NC(=O)[C@H](C)NC(=O)[C@H](CCCNC(=N)N)NC(=O)[C@H](CCC(=O)O)NC(=O)[C@H](CC(=O)O)NC(=O)[C@H](CC(C)C)NC(=O)[C@](C)(Cc1ccccc1)NC(=O)[C@H](CCCCN)NC(=O)[C@H](CO)NC(=O)[C@@H](NC(=O)[C@H](CC(=O)O)NC(=O)[C@H](CO)NC(=O)[C@@H](NC(=O)[C@H](Cc1ccccc1)NC(=O)[C@@H](NC(=O)CNC(=O)[C@H](CCC(N)=O)NC(=O)C(C)(C)NC(=O)[C@@H](N)Cc1c[nH]cn1)[C@@H](C)O)[C@@H](C)O)C(C)C)C(C)C)C(=O)N[C@@H](C)C(=O)N[C@@H](CC(N)=O)C(=O)N[C@H](C(N)=O)[C@@H](C)O` [Peptide 309], for which, in assay [1], the EC50 was determined as 0.0706 nM and the “% Relative Potency Ratio” value is recorded as 486.8. Further, the EC50 in assay [2] amounted to 17.4 nM.
As to `CC(C)C[C@H](NC(=O)[C@H](Cc1c[nH]c2ccccc12)NC(=O)[C@H](CCC(N)=O)NC(=O)[C@@H](NC(=O)[C@H](Cc1ccccc1)NC(=O)[C@H](CC(=O)O)NC(=O)[C@H](CCCCNC(=O)COCCOCCNC(=O)COCCOCCNC(=O)CC[C@H](NC(=O)CCCCCCCCCCCCCCCCC(=O)O)C(=O)O)NC(=O)[C@H](C)NC(=O)[C@H](C)NC(=O)[C@H](CCCNC(=N)N)NC(=O)[C@H](CO)NC(=O)[C@H](CC(=O)O)NC(=O)[C@H](CC(C)C)NC(=O)[C@](C)(Cc1ccccc1)NC(=O)[C@H](CCCCN)NC(=O)[C@H](CO)NC(=O)[C@@H](NC(=O)[C@H](CC(=O)O)NC(=O)[C@H](CO)NC(=O)[C@@H](NC(=O)[C@H](Cc1ccccc1)NC(=O)[C@@H](NC(=O)CNC(=O)[C@H](CCC(N)=O)NC(=O)C(C)(C)NC(=O)[C@@H](N)Cc1c[nH]cn1)[C@@H](C)O)[C@@H](C)O)C(C)C)C(C)C)C(=O)N[C@@H](CCC(=O)O)C(=O)N[C@@H](C)C(=O)NCC(=O)NCC(N)=O` [Peptide 310], in assay [1], the EC50 stood at 0.0564 nM and the “% Relative Potency Ratio” value is reported as 64.4. The EC50 in assay [2] was determined as 1.84 nM.
On the same counts, the results for `CC(C)C[C@H](NC(=O)[C@H](Cc1c[nH]c2ccccc12)NC(=O)[C@H](CCC(N)=O)NC(=O)[C@@H](NC(=O)[C@H](Cc1ccccc1)NC(=O)[C@H](CC(=O)O)NC(=O)[C@H](CCCCNC(=O)COCCOCCNC(=O)COCCOCCNC(=O)CC[C@H](NC(=O)CCCCCCCCCCCCCCCCC(=O)O)C(=O)O)NC(=O)[C@H](C)NC(=O)[C@H](C)NC(=O)[C@H](CCCNC(=N)N)NC(=O)[C@H](CO)NC(=O)[C@H](CC(=O)O)NC(=O)[C@H](CC(C)C)NC(=O)[C@](C)(Cc1ccccc1)NC(=O)[C@H](CCCCN)NC(=O)[C@H](CO)NC(=O)[C@@H](NC(=O)[C@H](CC(=O)O)NC(=O)[C@H](CO)NC(=O)[C@@H](NC(=O)[C@H](Cc1ccccc1)NC(=O)[C@@H](NC(=O)CNC(=O)[C@H](CCC(N)=O)NC(=O)C(C)(C)NC(=O)[C@@H](N)Cc1c[nH]cn1)[C@@H](C)O)[C@@H](C)O)C(C)C)C(C)C)C(=O)N[C@H](C(=O)N[C@@H](CCC(=O)O)C(=O)N[C@H](C(N)=O)[C@@H](C)O)C(C)C` [Peptide 311] are 0.0351 nM, 26.4 and 0.469 nM.
On the same counts, the results for `CC(C)C[C@H](NC(=O)[C@H](Cc1c[nH]c2ccccc12)NC(=O)[C@H](CCC(N)=O)NC(=O)[C@@H](NC(=O)[C@H](Cc1ccccc1)NC(=O)[C@H](CC(=O)O)NC(=O)[C@H](CCCCNC(=O)COCCOCCNC(=O)COCCOCCNC(=O)CC[C@H](NC(=O)CCCCCCCCCCCCCCCCC(=O)O)C(=O)O)NC(=O)[C@H](C)NC(=O)[C@H](CCCNC(=N)N)NC(=O)[C@H](CCCNC(=N)N)NC(=O)[C@H](CO)NC(=O)[C@H](CC(=O)O)NC(=O)[C@H](CC(C)C)NC(=O)[C@](C)(Cc1ccccc1)NC(=O)[C@H](CCCCN)NC(=O)[C@H](CO)NC(=O)[C@H](Cc1ccc(O)cc1)NC(=O)[C@H](CC(=O)O)NC(=O)[C@H](CO)NC(=O)[C@@H](NC(=O)[C@H](Cc1ccccc1)NC(=O)[C@@H](NC(=O)CNC(=O)[C@H](CCC(N)=O)NC(=O)C(C)(C)NC(=O)[C@@H](N)Cc1c[nH]cn1)[C@@H](C)O)[C@@H](C)O)C(C)C)C(=O)N[C@H](C(=O)NCCOCCOCCOCCOCCC(N)=O)C(C)C` [Peptide 312] (H-H[Aib]QGTFTSDYSK[αMeF]LDSRRAK([AEEA-AEEA-γGlu-C18 diacid])DFVQWLV[PEG4]-NH2; N-terminus assumed) are 0.152 nM, 36.1 and 2.78 nM.
On the same counts, the results for `CC(C)C[C@H](NC(=O)[C@H](Cc1c[nH]c2ccccc12)NC(=O)[C@H](CCC(N)=O)NC(=O)[C@@H](NC(=O)[C@H](Cc1ccccc1)NC(=O)[C@H](CC(=O)O)NC(=O)[C@H](CCCCNC(=O)COCCOCCNC(=O)COCCOCCNC(=O)CC[C@H](NC(=O)CCCCCCCCCCCCCCCCC(=O)O)C(=O)O)NC(=O)[C@H](C)NC(=O)C(C)(C)NC(=O)[C@H](CCCNC(=N)N)NC(=O)[C@H](CO)NC(=O)[C@H](CC(=O)O)NC(=O)[C@H](CC(C)C)NC(=O)[C@](C)(Cc1ccccc1)NC(=O)[C@H](CCCCN)NC(=O)[C@H](CO)NC(=O)[C@@H](NC(=O)[C@H](CC(=O)O)NC(=O)[C@H](CO)NC(=O)[C@@H](NC(=O)[C@H](Cc1ccccc1)NC(=O)[C@@H](NC(=O)CNC(=O)[C@H](CCC(N)=O)NC(=O)C(C)(C)NC(=O)[C@@H](N)Cc1c[nH]cn1)[C@@H](C)O)[C@@H](C)O)C(C)C)C(C)C)C(=O)N[C@@H](CC(C)C)C(=O)N[C@@H](CC(N)=O)C(=O)N[C@H](C(=O)O)[C@@H](C)O` [Peptide 313] are 0.138 nM, 17.6 and 1.23 nM.
As to `CC(C)C[C@H](NC(=O)C(C)(C)NC(=O)[C@H](CCC(N)=O)NC(=O)[C@@H](NC(=O)[C@H](Cc1ccccc1)NC(=O)[C@H](CC(=O)O)NC(=O)[C@H](CCCCNC(=O)COCCOCCNC(=O)COCCOCCNC(=O)CC[C@H](NC(=O)CCCCCCCCCCCCCCCCC(=O)O)C(=O)O)NC(=O)[C@H](C)NC(=O)C(C)(C)NC(=O)[C@H](CCCNC(=N)N)NC(=O)[C@H](CO)NC(=O)[C@H](CC(=O)O)NC(=O)[C@H](CC(C)C)NC(=O)[C@](C)(Cc1ccccc1)NC(=O)[C@H](CCCCN)NC(=O)[C@H](CO)NC(=O)[C@@H](NC(=O)[C@H](CC(=O)O)NC(=O)[C@H](CO)NC(=O)[C@@H](NC(=O)[C@H](Cc1ccccc1)NC(=O)[C@@H](NC(=O)CNC(=O)[C@H](CCC(N)=O)NC(=O)C(C)(C)NC(=O)[C@@H](N)Cc1c[nH]cn1)[C@@H](C)O)[C@@H](C)O)C(C)C)C(C)C)C(=O)N[C@H](C(=O)N[C@@H](C)C(=O)N[C@H](C(N)=O)[C@@H](C)O)C(C)C` [Peptide 314] (H-H[Aib]QGTFTSDVSK[αMeF]LDSR[Aib]AK([AEEA-AEEA-γGlu-C18 diacid])DFVQ[Aib]LVAT-NH2; N-terminus assumed), the concentration for a half-maximal effect (EC50) in assay [1] stood at 0.0308 nM; in assay [2] it was 6.83 nM. Moreover, in assay [1], the “% Relative Potency Ratio” value amounted to 439.3.
